Experimental data from article PMC5238430, “Prebiotic galactooligosaccharides activate mucin and pectic galactan utilization pathways in the human gut symbiont Bacteroides thetaiotaomicron” (Scientific Reports, 2017).

Target: T1, BtGH53 (BT_4668), GH53 endo-beta-(1->4)-galactanase (Bacteroides thetaiotaomicron, UniProt Q89YR3)
T1 sequence (Q89YR3 23-353): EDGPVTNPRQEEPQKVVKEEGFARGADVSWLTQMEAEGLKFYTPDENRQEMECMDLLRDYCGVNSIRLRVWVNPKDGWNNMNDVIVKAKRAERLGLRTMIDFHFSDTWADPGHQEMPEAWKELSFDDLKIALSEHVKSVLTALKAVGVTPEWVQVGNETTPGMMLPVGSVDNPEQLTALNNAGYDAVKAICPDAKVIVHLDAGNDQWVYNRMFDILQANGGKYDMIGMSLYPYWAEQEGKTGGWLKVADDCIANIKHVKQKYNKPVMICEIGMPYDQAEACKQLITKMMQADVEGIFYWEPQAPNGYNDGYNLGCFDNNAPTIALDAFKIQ
Assay: TLC and HPAEC-PAD of hydrolysis products
Format: biochemical
Settings: component of purified GOS mixture (TS0903), not tested singly; 20 mM Tris pH 7.5, 150 mM NaCl, 37 °C, 16 h

OC[C@H]1O[C@@H](O[C@@H]2[C@H](O)[C@@H](O)[C@H](O[C@H]3[C@H](O)[C@@H](O)C(O)O[C@@H]3CO)O[C@@H]2CO)[C@H](O)[C@@H](O)[C@H]1O (stereo partly drawn) [compound 9, β-D-Galp-(1 → 4)-β-D-Galp-(1 → 4)-β-D-Glc]
TLC and HPAEC-PAD of hydrolysis products: BtGH53 hydrolyzes linear DP3 and higher GOS compounds
